In publication PMC4010122 (Journal of medicinal chemistry, 2008):
Each block holds one compound with its values, some of them ahead of it.

Key:
Assay type in all cases: biochemical
BRAF^WT = BRAF^WT (Homo sapiens, UniProt P15056); assay: ELISA-based MEK phosphorylation assay
PAK4 = PAK4 (Homo sapiens, UniProt O96013); assay: Kinase profiling, PAK4; conditions: inhibitor concentration of 100 μM
MST1 = molecular target: T1, MST1 (Homo sapiens, UniProt Q13043); assay: Kinase profiling, MST1; conditions: inhibitor concentration of 100 μM
T1 sequence (Q13043 1-487): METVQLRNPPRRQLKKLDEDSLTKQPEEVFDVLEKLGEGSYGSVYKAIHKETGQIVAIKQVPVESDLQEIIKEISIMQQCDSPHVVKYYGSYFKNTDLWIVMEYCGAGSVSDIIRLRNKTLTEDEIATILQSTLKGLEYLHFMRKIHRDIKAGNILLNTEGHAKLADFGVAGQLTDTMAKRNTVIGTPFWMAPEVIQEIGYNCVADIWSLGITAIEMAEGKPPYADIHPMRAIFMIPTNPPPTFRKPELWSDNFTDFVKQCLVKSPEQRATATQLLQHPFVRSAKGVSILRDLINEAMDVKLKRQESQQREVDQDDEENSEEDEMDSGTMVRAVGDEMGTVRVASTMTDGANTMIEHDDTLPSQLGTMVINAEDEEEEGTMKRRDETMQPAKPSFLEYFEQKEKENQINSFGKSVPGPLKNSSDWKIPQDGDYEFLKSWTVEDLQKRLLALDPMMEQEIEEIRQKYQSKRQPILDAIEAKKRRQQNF

PAK1 = PAK1 (Homo sapiens, UniProt Q13153); assay: Kinase profiling, PAK1; conditions: inhibitor concentration of 100 μM
Chain of PAK1 (Q13153 whole entry): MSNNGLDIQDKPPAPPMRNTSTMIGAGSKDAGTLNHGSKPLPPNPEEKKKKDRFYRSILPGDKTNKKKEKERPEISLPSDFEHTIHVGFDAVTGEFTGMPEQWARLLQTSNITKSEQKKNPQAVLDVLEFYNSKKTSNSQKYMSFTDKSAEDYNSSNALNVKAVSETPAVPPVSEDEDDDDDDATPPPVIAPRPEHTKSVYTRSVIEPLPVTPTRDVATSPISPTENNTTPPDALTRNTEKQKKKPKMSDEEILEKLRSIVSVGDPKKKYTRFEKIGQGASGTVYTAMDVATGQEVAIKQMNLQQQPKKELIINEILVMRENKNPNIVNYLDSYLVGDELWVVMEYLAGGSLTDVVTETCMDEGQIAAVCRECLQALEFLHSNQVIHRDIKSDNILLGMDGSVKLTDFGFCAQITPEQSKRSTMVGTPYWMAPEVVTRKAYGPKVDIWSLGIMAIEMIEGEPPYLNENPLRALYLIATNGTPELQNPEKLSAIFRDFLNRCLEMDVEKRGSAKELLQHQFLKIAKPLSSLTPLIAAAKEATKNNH

PI3Kγ = PI3Kγ (Homo sapiens, UniProt P48736); assay: Kinase profiling, PI3Kγ lipid kinase; conditions: BRAF versus PI3Kγ
Chain of PI3Kγ (P48736 whole entry, species assumed): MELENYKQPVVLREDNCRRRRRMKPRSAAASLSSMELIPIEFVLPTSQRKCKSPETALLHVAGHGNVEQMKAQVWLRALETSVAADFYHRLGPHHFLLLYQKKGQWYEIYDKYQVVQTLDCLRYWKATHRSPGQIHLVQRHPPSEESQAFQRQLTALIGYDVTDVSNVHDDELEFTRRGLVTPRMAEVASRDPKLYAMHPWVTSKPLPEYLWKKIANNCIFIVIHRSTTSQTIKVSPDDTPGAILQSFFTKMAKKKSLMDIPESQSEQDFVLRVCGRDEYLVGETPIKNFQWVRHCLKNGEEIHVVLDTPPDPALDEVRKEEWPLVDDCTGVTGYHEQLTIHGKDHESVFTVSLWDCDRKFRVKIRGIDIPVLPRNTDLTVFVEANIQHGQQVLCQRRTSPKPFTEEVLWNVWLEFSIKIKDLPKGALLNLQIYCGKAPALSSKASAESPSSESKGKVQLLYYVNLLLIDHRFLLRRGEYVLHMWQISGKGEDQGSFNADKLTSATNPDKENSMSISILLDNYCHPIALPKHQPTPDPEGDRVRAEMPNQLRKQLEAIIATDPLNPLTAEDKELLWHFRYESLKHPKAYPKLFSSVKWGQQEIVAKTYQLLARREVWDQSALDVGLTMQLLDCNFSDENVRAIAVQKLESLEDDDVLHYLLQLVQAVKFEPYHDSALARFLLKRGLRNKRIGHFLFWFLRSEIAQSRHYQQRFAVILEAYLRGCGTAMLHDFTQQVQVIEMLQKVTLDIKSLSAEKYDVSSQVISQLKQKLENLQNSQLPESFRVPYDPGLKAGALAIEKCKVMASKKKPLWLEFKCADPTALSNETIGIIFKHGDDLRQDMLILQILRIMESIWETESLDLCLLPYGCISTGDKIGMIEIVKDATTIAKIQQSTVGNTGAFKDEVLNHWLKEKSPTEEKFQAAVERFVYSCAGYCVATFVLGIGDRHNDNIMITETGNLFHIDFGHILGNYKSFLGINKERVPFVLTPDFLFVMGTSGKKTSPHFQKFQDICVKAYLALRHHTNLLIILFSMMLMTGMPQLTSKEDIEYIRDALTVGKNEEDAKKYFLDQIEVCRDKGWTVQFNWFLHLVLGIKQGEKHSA

GSK3β = GSK3β (Homo sapiens, UniProt P49841); assay: Kinase profiling, GSK3β; conditions: inhibitor concentration of 100 μM
Chain of GSK3β (P49841 whole entry, species assumed): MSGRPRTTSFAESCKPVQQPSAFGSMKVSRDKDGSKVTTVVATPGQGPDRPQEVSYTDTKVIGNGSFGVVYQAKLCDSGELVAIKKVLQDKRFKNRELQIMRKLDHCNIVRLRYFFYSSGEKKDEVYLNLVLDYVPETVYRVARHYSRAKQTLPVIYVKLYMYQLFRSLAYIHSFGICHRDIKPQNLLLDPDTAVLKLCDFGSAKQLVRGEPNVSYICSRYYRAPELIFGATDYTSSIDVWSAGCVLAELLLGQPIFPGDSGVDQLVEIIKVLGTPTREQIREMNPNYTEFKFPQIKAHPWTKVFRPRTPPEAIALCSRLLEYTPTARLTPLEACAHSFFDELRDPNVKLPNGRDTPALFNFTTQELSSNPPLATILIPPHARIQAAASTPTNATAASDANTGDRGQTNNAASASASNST

Pim1 = Pim1 (Homo sapiens, UniProt P11309); assay: Kinase profiling, Pim1; conditions: inhibitor concentration of 100 μM
Chain of Pim1 (P11309 whole entry, species assumed): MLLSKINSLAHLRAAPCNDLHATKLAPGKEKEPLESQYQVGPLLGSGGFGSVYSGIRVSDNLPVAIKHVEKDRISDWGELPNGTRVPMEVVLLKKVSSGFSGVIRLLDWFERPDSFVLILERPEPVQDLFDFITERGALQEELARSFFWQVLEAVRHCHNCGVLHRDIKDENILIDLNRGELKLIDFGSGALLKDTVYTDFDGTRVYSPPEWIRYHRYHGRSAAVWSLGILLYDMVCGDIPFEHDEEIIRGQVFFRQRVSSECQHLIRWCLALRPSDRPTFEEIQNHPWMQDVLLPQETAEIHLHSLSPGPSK

Chain of BRAF^WT (P15056 433-726): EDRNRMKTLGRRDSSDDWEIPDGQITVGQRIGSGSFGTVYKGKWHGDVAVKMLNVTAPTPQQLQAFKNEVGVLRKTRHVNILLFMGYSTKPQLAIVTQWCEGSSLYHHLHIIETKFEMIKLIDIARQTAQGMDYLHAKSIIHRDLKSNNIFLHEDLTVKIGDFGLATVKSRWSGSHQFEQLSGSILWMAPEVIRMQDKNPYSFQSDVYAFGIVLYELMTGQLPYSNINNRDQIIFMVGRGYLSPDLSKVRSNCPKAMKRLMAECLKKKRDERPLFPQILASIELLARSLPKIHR
Chain of PAK4 (O96013 whole entry, species assumed): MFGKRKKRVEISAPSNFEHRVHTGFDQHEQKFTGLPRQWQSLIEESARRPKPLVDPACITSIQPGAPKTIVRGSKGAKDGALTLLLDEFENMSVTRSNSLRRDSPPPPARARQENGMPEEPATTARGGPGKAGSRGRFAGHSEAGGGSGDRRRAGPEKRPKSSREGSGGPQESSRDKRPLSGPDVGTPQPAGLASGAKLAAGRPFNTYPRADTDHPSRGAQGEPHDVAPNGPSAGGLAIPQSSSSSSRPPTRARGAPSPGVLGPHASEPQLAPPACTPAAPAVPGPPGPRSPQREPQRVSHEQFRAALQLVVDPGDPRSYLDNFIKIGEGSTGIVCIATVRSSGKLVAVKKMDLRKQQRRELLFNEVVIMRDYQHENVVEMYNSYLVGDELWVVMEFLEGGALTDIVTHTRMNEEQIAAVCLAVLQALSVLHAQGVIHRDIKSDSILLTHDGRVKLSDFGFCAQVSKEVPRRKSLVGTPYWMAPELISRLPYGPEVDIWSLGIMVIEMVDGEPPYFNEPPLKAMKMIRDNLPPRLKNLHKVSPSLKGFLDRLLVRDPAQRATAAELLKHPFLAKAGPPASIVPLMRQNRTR

remaining activity at 100 µM (BRAF^WT; read-out: BRAF kinase activity remaining (of wild-type activity)): ~80%
Compound: CC1Nc2nc(NC(=O)c3ccc[n+](C)c3)[nH]c(=O)c2N(C(=O)c2ccc[n+](C)c2)C1C (stereo not shown) [compound 1]

inhibition against PAK4 (PAK4): did not show significant inhibition
inhibition against MST1 (MST1): did not show significant inhibition
inhibition against PAK1 (PAK1): did not show significant inhibition
selectivity for BRAF over PI3K lipid kinases (PI3Kγ): > 12 fold
inhibition against GSK3β (GSK3β): did not show significant inhibition
inhibition against Pim1 (Pim1): did not show significant inhibition
selectivity for BRAF over other representative protein kinases (BRAF^WT; versus GSK3β, Pim1, MST1, PAK1, PAK4): more than 50 fold
Compound: Cn1c(=O)n(Cc2ccccc2)c(=O)c2c1nc(SCCO)n2Cc1ccccc1 [compound 24]

reduction in BRAF inhibitor potency relative to compound 19 (BRAF^WT): ≥ 20 fold
Compound: Cn1c(=O)[nH]c(=O)c2c1nc(N/N=C\c1cccc([N+](=O)[O-])c1)n2Cc1ccccc1 [compound 31]

reduction in BRAF inhibitor potency relative to compound 19 (BRAF^WT): ≥ 20 fold
Compound: Cn1c(=O)[nH]c(=O)c2c1nc(N/N=C\c1ccc([N+](=O)[O-])cc1)n2Cc1ccccc1 [compound 32]
